Source: patent US20210053957A1, “HERBICIDAL COMPOUNDS” (SYNGENTA PARTICIPATIONS AG, priority 2018, published 2021)

Experiments:
Test in all cases: Post-emergence efficacy, glasshouse spray test
Format in all cases: in vivo
Setaia fabei (SETFA) = details: Application Rate 500 g/Ha, evaluated after 13 days; for pest or weed control at 500 g/ha: Setaria faberi, post-emergence, 312 h, read-out: Control of weed species after post-emergence application, SETFA (100=total damage to plant; 0=no damage to plant)
Outline: (§1)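 Treatment at 14 days after sowing with an aqueous spray made by diluting a 50 g/l stock (acetone + IF50: Emulsogen EL360, N-methyl pyrrolidone, Dowanol DPM) in surfactant plus ammonium sulphate. Damage scored 0–100 after 13 days.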

Eleusine indica (ELEIN) = details: Application Rate 500 g/Ha, evaluated after 13 days; for pest or weed control at 500 g/ha: Eleusine indica, post-emergence, 312 h, read-out: Control of weed species after post-emergence application, ELEIN (100=total damage to plant; 0=no damage to plant)
Outline: as §1

[1] = system: Ipomoea hederacea (IPOHE); details: Application Rate 500 g/Ha, evaluated after 13 days; for pest or weed control at 500 g/ha: Ipomoea hederacea, post-emergence, 312 h, read-out: Control of weed species after post-emergence application, IPOHE (100=total damage to plant; 0=no damage to plant)
Outline: as §1

[2] = system: Amaranthus palmeri (AMAPA); details: Application Rate 500 g/Ha, evaluated after 13 days; for pest or weed control at 500 g/ha: Amaranthus palmeri, post-emergence, 312 h, read-out: Control of weed species after post-emergence application, AMAPA (100=total damage to plant; 0=no damage to plant)
Outline: as §1

[3] = system: Euphorbia heterophylla (EPHHL); details: Application Rate 500 g/Ha, evaluated after 13 days; for pest or weed control at 500 g/ha: Euphorbia heterophylla, post-emergence, 312 h, read-out: Control of weed species after post-emergence application, EPHHL (100=total damage to plant; 0=no damage to plant)
Outline: as §1

[4] = system: Chenopodium album (CHEAL); details: Application Rate 500 g/Ha, evaluated after 13 days; for pest or weed control at 500 g/ha: Chenopodium album, post-emergence, 312 h, read-out: Control of weed species after post-emergence application, CHEAL (100=total damage to plant; 0=no damage to plant)
Outline: as §1

[5] = system: Digitaria sanguinalis (DIGSA); details: Application Rate 500 g/Ha, evaluated after 13 days; for pest or weed control at 500 g/ha: Digitaria sanguinalis, post-emergence, 312 h, read-out: Control of weed species after post-emergence application, DIGSA (100=total damage to plant; 0=no damage to plant)
Outline: as §1

Lolium perenne (LOLPE) = details: Application Rate 500 g/Ha, evaluated after 13 days; for pest or weed control at 500 g/ha: Lolium perenne, post-emergence, 312 h, read-out: Control of weed species after post-emergence application, LOLPE (100=total damage to plant; 0=no damage to plant)
Outline: as §1

[6] = system: Echinochloa crus-galli (ECHCG); details: Application Rate 500 g/Ha, evaluated after 13 days; for pest or weed control at 500 g/ha: Echinochloa crus-galli, post-emergence, 312 h, read-out: Control of weed species after post-emergence application, ECHCG (100=total damage to plant; 0=no damage to plant)
Outline: as §1

| SMILES | pest or weed control at 500 g/ha (Setaia fabei (SETFA)) [%] | pest or weed control at 500 g/ha (Eleusine indica (ELEIN)) [%] | pest or weed control at 500 g/ha [1] [%] | pest or weed control at 500 g/ha [2] [%] | pest or weed control at 500 g/ha [3] [%] | pest or weed control at 500 g/ha [4] [%] | pest or weed control at 500 g/ha [5] [%] | pest or weed control at 500 g/ha (Lolium perenne (LOLPE)) [%] | pest or weed control at 500 g/ha [6] [%] | Control of weed species after post-emergence application, SETFA (100=total damage to plant; 0=no damage to plant) (Setaia fabei (SETFA)) | Control of weed species after post-emergence application, ELEIN (100=total damage to plant; 0=no damage to plant) (Eleusine indica (ELEIN)) | Control of weed species after post-emergence application, IPOHE (100=total damage to plant; 0=no damage to plant) [1] | Control of weed species after post-emergence application, AMAPA (100=total damage to plant; 0=no damage to plant) [2] | Control of weed species after post-emergence application, EPHHL (100=total damage to plant; 0=no damage to plant) [3] | Control of weed species after post-emergence application, CHEAL (100=total damage to plant; 0=no damage to plant) [4] | Control of weed species after post-emergence application, DIGSA (100=total damage to plant; 0=no damage to plant) [5] | Control of weed species after post-emergence application, LOLPE (100=total damage to plant; 0=no damage to plant) (Lolium perenne (LOLPE)) | Control of weed species after post-emergence application, ECHCG (100=total damage to plant; 0=no damage to plant) [6] |
| --- | --- | --- | --- | --- | --- | --- | --- | --- | --- | --- | --- | --- | --- | --- | --- | --- | --- | --- |
| O=S(=O)([O-])CC[n+]1ccc(-c2ccon2)cn1 [Compound A64] | 80 | 30 | 90 | 100 | 100 | 90 | 90 | 40 | 80 | – | – | – | – | – | – | – | – | – |
| CC(C)c1csc(-c2cc[n+](CCS(=O)(=O)O)nc2)n1 [Compound A23] | – | – | – | – | – | – | – | – | – | 40 | 60 | 30 | 50 | 70 | 10 | 50 | 40 | 30 |
| O=C(O)CC[n+]1ccc(-c2ncco2)cn1 [Compound A32] | 80 | 90 | 60 | 80 | 80 | 90 | 90 | 40 | 90 | – | – | – | – | – | – | – | – | – |
| CCOC(=O)c1coc(-c2cc[n+](CCS(=O)(=O)O)nc2)n1 [Compound A124] | – | – | – | – | – | – | – | – | – | 70 | 80 | 40 | 90 | 90 | 30 | 90 | 40 | 40 |
| CCOC(=O)CC[n+]1ccc(-c2cocn2)cn1 [Compound A20] | 20 | 50 | 10 | 40 | 10 | 20 | 60 | 10 | 30 | – | – | – | – | – | – | – | – | – |
| COC(=O)CCC[n+]1ccc(-c2ncn(C)n2)cn1 [Compound A121] | 40 | 50 | 10 | 30 | 40 | 10 | 60 | 10 | 100 | – | – | – | – | – | – | – | – | – |
| Nc1nnc(-c2cc[n+](CCC(=O)O)nc2)s1 [Compound A47] | 90 | 100 | 30 | 100 | 100 | 100 | 90 | 100 | 90 | – | – | – | – | – | – | – | – | – |
| Cc1nsc(-c2cc[n+](CCS(=O)(=O)[O-])nc2)n1 [Compound A10] | 60 | 60 | 50 | 60 | 60 | 80 | 50 | 60 | 30 | – | – | – | – | – | – | – | – | – |
| CS(=O)(=O)C[N-]C(=O)CCC[n+]1ccc(-c2ncco2)cn1 [Compound A74] | 80 | 100 | 80 | 100 | 70 | 90 | 90 | 60 | 40 | – | – | – | – | – | – | – | – | – |
| Cc1csc(-c2cc[n+](CCS(=O)(=O)[O-])nc2)n1 [Compound A13] | 60 | 80 | 40 | 90 | 90 | 70 | 30 | 60 | 40 | – | – | – | – | – | – | – | – | – |
| Cn1cnc(-c2cc[n+](CCCC(=O)O)nc2)n1 [Compound A119] | 100 | 90 | 30 | 100 | 80 | 50 | 90 | 30 | 80 | – | – | – | – | – | – | – | – | – |
| O=S(=O)([O-])CC[n+]1ccc(-c2nc(C(F)(F)F)co2)cn1 [Compound A57] | 60 | 60 | 60 | 100 | 90 | 100 | 70 | 50 | 80 | – | – | – | – | – | – | – | – | – |
| Cn1nc(-c2cc[n+](CCS(=O)(=O)[O-])nc2)cc1C(F)(F)F [Compound A29] | 20 | 30 | 20 | 20 | 20 | 50 | 30 | 20 | 20 | – | – | – | – | – | – | – | – | – |
| O=S(=O)([O-])CC[n+]1ccc(-c2nc(Cl)cs2)cn1 [Compound A25] | 40 | 40 | 40 | 80 | 80 | 70 | 40 | 20 | 30 | – | – | – | – | – | – | – | – | – |
| Cc1cnc(-c2cc[n+](CCC(=O)O)nc2)o1 [Compound A15, 3-[4-(5-methyloxazol-2-yl)pyridazin-1-ium-1-yl]propanoic acid; 2,2,2-trifluoroacetate] | 70 | 100 | 30 | 100 | 100 | 80 | 80 | 60 | 80 | – | – | – | – | – | – | – | – | – |
| O=S(=O)([O-])NCC[n+]1ccc(-c2ncco2)cn1 [Compound A73] | 60 | 70 | 30 | 80 | 50 | 70 | 70 | 10 | 50 | – | – | – | – | – | – | – | – | – |
| O=S(=O)([O-])CC[n+]1ccc(-c2cnsc2)cn1 [Compound A60] | 50 | 70 | 10 | 90 | 50 | 90 | 50 | 30 | 40 | – | – | – | – | – | – | – | – | – |
